{
  "source": "patent US6313090A",
  "about": "“Methods for treating parasitic infection using thiopeptides” (The United States of America as represented by the …, priority 2000, dated 2001)",
  "test_system": "MDBKF5D2 cell monolayers",
  "assay": "Toxicity testing assay (MTS/PMS, OD 490 nm)",
  "format": "cell-based",
  "procedure": "(§1) Toxicity Testing Assay. 200 μl of medium containing drug at the above-mentioned concentrations and positive control preparations [paromomycin/DMSO (2 mg/ml/0.2%)] were introduced into two wells of a 96 well plate containing confluent MDBKF5D2 cell monolayers (ATCC accession number CCL-22) infected with intact C. parvum GCH1 oocysts (5.0×10^4 per well) (43) and two wells without monolayers. The drug was incubated on the monolayers at 37° C. and 8% CO2. At 48 hours, MTS (Owen's solution) and PMS were added to each well at concentrations of 333 μg/ml and 25 μM respectively. The plate was returned to the incubator in the dark to develop for two hours. At two hours, 100 μl of each supernatant was transferred to a new microtiter plate and the optical density (OD) was read in an ELISA plate reader at 490 nm.\nPercent toxicity was calculated by subtracting the mean drug OD from the medium OD, divided by the medium OD, all of which was then multiplied by 100, as shown in the equation below. Cytotoxicity scores were assigned as follows: 0-5% toxicity=0, 6-25% toxicity=1, 26-50% toxicity=2, 51-75% toxicity=3, and 76-100% toxicity=4. As a standard, cytotoxicity scores of 0 or, 1 were considered acceptable levels of toxicity. Toxicity scores of 2, 3, or 4 were considered as high levels of toxicity to the cell monolayer. [formula]\nas §1, with “containing drugs” for “containing drug”, “monolayers” for “monolayers (ATCC accession number CCL-22)”, “well)” for “well) (43)”, “and 25μM” for “and 25 μM”\nPercent toxicity was calculated by subtracting the mean drug OD from the medium OD, divided by the medium OD, all of which was then multiplied by 100, as shown in the equation below. Cytotoxicity scores were assigned as follows: 0-5% toxicity=0, 6-25% toxicity=1, 26-50% toxicity=2, 51-75% toxicity=3, and 76-100% toxicity=4. As a standard, cytotoxicity scores of 0 or 1 were considered acceptable levels of toxicity. Toxicity scores of 2, 3, or 4 were considered as high levels of toxicity to the cell monolayer. [formula]\nas §1, with “monolayers” for “monolayers (ATCC accession number CCL-22)”, “well)” for “well) (43)”, “25μM” for “25 μM”",
  "key": {"[1]": {"details": "Table 4 Washed at 4 hours, 100 μg/ml"}, "[2]": {"details": "Table 4 Washed at 4 hours, 200 μg/ml"}, "[3]": {"details": "Table 4 Washed at 4 hours, 400 μg/ml"}, "[4]": {"details": "Table 4 Washed at 4 hours, 800 μg/ml"}, "[5]": {"details": "Table 5, 800 μg/ml, drug added at 0 hrs"}, "[6]": {"details": "Table 5, 800 μg/ml, drug added at 2 hrs"}, "[7]": {"details": "Table 5, 800 μg/ml, drug added at 4 hrs"}, "[8]": {"details": "Table 5, 800 μg/ml, drug added at 8 hrs"}, "[9]": {"details": "Table 5, 800 μg/ml, drug added at 24 hrs"}},
  "data": [
    {"smiles": "C=C(NC(=O)C(=C)NC(=O)c1csc(C2=N[C@@H]3c4csc(n4)[C@H]4NC(=O)c5csc(n5)[C@H]([C@](C)(O)[C@@H](C)O)NC(=O)[C@H]5CSC(=N5)/C(=C/C)NC(=O)[C@H]([C@@H](C)O)NC(=O)c5csc(n5)[C@]3(CC2)NC(=O)[C@H](C)NC(=O)C(=C)NC(=O)[C@H](C)NC(=O)[C@H]([C@@H](C)CC)N[C@@H]2C=Cc3c([C@H](C)O)cc(nc3[C@H]2O)C(=O)O[C@@H]4C)n1)C(N)=O", "note": "[Thiostrepton, thiostrepton]", "values": [
      {"measurement": "Tox. O.D.", "setting": "Table 1, 1 μg/ml", "result": ".941"},
      {"measurement": "Toxicity Percent", "setting": "Table 1, 1 μg/ml", "result": 14.50, "unit": "%"},
      {"measurement": "Toxicity Score", "setting": "Table 1, 1 μg/ml", "result": "1 (6-25% toxicity=1)"},
      {"measurement": "Tox. O.D.", "setting": "Table 1, 10 μg/ml", "result": ".991"},
      {"measurement": "Toxicity Percent", "setting": "Table 1, 10 μg/ml", "result": 9.95, "unit": "%"},
      {"measurement": "Toxicity Score", "setting": "Table 1, 10 μg/ml", "result": "1 (6-25% toxicity=1)"},
      {"measurement": "Tox. O.D.", "setting": "Table 1, 100 μg/ml", "result": ".994"},
      {"measurement": "Toxicity Percent", "setting": "Table 1, 100 μg/ml", "result": 9.64, "unit": "%"},
      {"measurement": "Toxicity Score", "setting": "Table 1, 100 μg/ml", "result": "1 (6-25% toxicity=1)"},
      {"measurement": "Tox. O.D.", "setting": "Table 1, .1 μg/ml", "result": ".912"},
      {"measurement": "Toxicity Percent", "setting": "Table 1, .1 μg/ml", "result": 17.14, "unit": "%"},
      {"measurement": "Toxicity Score", "setting": "Table 1, .1 μg/ml", "result": "1 (6-25% toxicity=1)"},
      {"measurement": "Tox. O.D.", "setting": "Table 2, 100 μg/ml", "result": ".915"},
      {"measurement": "Toxicity Percent", "setting": "Table 2, 100 μg/ml", "result": 9.14, "unit": "%"},
      {"measurement": "Toxicity Score", "setting": "Table 2, 100 μg/ml", "result": "1 (6-25% toxicity=1)"},
      {"measurement": "Tox. O.D.", "setting": "Table 2, 200 μg/ml", "result": ".820"},
      {"measurement": "Toxicity Percent", "setting": "Table 2, 200 μg/ml", "result": 18.62, "unit": "%"},
      {"measurement": "Toxicity Score", "setting": "Table 2, 200 μg/ml", "result": "1 (6-25% toxicity=1)"},
      {"measurement": "Tox. O.D.", "setting": "Table 2, 400 μg/ml", "result": ".799"},
      {"measurement": "Toxicity Percent", "setting": "Table 2, 400 μg/ml", "result": 20.71, "unit": "%"},
      {"measurement": "Toxicity Score", "setting": "Table 2, 400 μg/ml", "result": "1 (6-25% toxicity=1)"},
      {"measurement": "Tox. O.D.", "setting": "Table 2, 800 μg/ml", "result": ".676"},
      {"measurement": "Toxicity Percent", "setting": "Table 2, 800 μg/ml", "result": 32.87, "unit": "%"},
      {"measurement": "Toxicity Score", "setting": "Table 2, 800 μg/ml", "result": "2 (26-50% toxicity=2)"},
      {"measurement": "Tox. O.D.", "setting": "Table 3 Unwashed, 100 μg/ml", "result": ".969"},
      {"measurement": "Toxicity Percent", "setting": "Table 3 Unwashed, 100 μg/ml", "result": 7.10, "unit": "%"},
      {"measurement": "Toxicity Score", "setting": "Table 3 Unwashed, 100 μg/ml", "result": "1 (6-25% toxicity=1)"},
      {"measurement": "Tox. O.D.", "setting": "Table 3 Unwashed, 200 μg/ml", "result": ".827"},
      {"measurement": "Toxicity Percent", "setting": "Table 3 Unwashed, 200 μg/ml", "result": 20.67, "unit": "%"},
      {"measurement": "Toxicity Score", "setting": "Table 3 Unwashed, 200 μg/ml", "result": "1 (6-25% toxicity=1)"},
      {"measurement": "Tox. O.D.", "setting": "Table 3 Unwashed, 400 μg/ml", "result": ".788"},
      {"measurement": "Toxicity Percent", "setting": "Table 3 Unwashed, 400 μg/ml", "result": 24.41, "unit": "%"},
      {"measurement": "Toxicity Score", "setting": "Table 3 Unwashed, 400 μg/ml", "result": "1 (6-25% toxicity=1)"},
      {"measurement": "Tox. O.D.", "setting": "Table 3 Unwashed, 800 μg/ml", "result": ".739"},
      {"measurement": "Toxicity Percent", "setting": "Table 3 Unwashed, 800 μg/ml", "result": 29.11, "unit": "%"},
      {"measurement": "Toxicity Score", "setting": "Table 3 Unwashed, 800 μg/ml", "result": "2 (26-50% toxicity=2)"},
      {"measurement": "Tox. O.D.", "setting": "[1]", "result": ".969"},
      {"measurement": "Toxicity Percent", "setting": "[1]", "result": 6.96, "unit": "%"},
      {"measurement": "Toxicity Score", "setting": "[1]", "result": "1 (6-25% toxicity=1)"},
      {"measurement": "Tox. O.D.", "setting": "[2]", "result": ".827"},
      {"measurement": "Toxicity Percent", "setting": "[2]", "result": 20.56, "unit": "%"},
      {"measurement": "Toxicity Score", "setting": "[2]", "result": "1 (6-25% toxicity=1)"},
      {"measurement": "Tox. O.D.", "setting": "[3]", "result": ".788"},
      {"measurement": "Toxicity Percent", "setting": "[3]", "result": 24.30, "unit": "%"},
      {"measurement": "Toxicity Score", "setting": "[3]", "result": "1 (6-25% toxicity=1)"},
      {"measurement": "Tox. O.D.", "setting": "[4]", "result": ".739"},
      {"measurement": "Toxicity Percent", "setting": "[4]", "result": 29.01, "unit": "%"},
      {"measurement": "Toxicity Score", "setting": "[4]", "result": "2 (26-50% toxicity=2)"},
      {"measurement": "Tox. O.D.", "setting": "[5]", "result": ".783"},
      {"measurement": "Toxicity Percent", "setting": "[5]", "result": 22.91, "unit": "%"},
      {"measurement": "Toxicity Score", "setting": "[5]", "result": "1 (6-25% toxicity=1)"},
      {"measurement": "Tox. O.D.", "setting": "[6]", "result": ".577"},
      {"measurement": "Toxicity Percent", "setting": "[6]", "result": 43.15, "unit": "%"},
      {"measurement": "Toxicity Score", "setting": "[6]", "result": "2 (26-50% toxicity=2)"},
      {"measurement": "Tox. O.D.", "setting": "[7]", "result": ".638"},
      {"measurement": "Toxicity Percent", "setting": "[7]", "result": 37.14, "unit": "%"},
      {"measurement": "Toxicity Score", "setting": "[7]", "result": "2 (26-50% toxicity=2)"},
      {"measurement": "Tox. O.D.", "setting": "[8]", "result": ".786"},
      {"measurement": "Toxicity Percent", "setting": "[8]", "result": 22.56, "unit": "%"},
      {"measurement": "Toxicity Score", "setting": "[8]", "result": "1 (6-25% toxicity=1)"},
      {"measurement": "Tox. O.D.", "setting": "[9]", "result": ".749"},
      {"measurement": "Toxicity Percent", "setting": "[9]", "result": 26.26, "unit": "%"},
      {"measurement": "Toxicity Score", "setting": "[9]", "result": "2 (26-50% toxicity=2)"},
      {"measurement": "Tox. O.D.", "setting": "Table 6, 100 μg/ml", "result": 1.348},
      {"measurement": "Toxicity Percent", "setting": "Table 6, 100 μg/ml", "result": 18.15, "unit": "%"},
      {"measurement": "Toxicity Score", "setting": "Table 6, 100 μg/ml", "result": "1 (6-25% toxicity=1)"},
      {"measurement": "Tox. O.D.", "setting": "Table 6, 200 μg/ml", "result": 1.324},
      {"measurement": "Toxicity Percent", "setting": "Table 6, 200 μg/ml", "result": 19.61, "unit": "%"},
      {"measurement": "Toxicity Score", "setting": "Table 6, 200 μg/ml", "result": "1 (6-25% toxicity=1)"},
      {"measurement": "Tox. O.D.", "setting": "Table 6, 400 μg/ml", "result": 1.146},
      {"measurement": "Toxicity Percent", "setting": "Table 6, 400 μg/ml", "result": 30.45, "unit": "%"},
      {"measurement": "Toxicity Score", "setting": "Table 6, 400 μg/ml", "result": "2 (26-50% toxicity=2)"},
      {"measurement": "Tox. O.D.", "setting": "Table 6, 800 μg/ml", "result": ".890"},
      {"measurement": "Toxicity Percent", "setting": "Table 6, 800 μg/ml", "result": 45.96, "unit": "%"},
      {"measurement": "Toxicity Score", "setting": "Table 6, 800 μg/ml", "result": "2 (26-50% toxicity=2)"},
      {"measurement": "toxicity to cells", "setting": "in vitro, summary statement", "result": "little toxicity to cells"}
    ]}
  ]
}
